According to patent US20250388604A1, “Compounds and Their Use as PDE4 Activators” (Mironid Limited, priority 2022, published 2025):

system: m-IMCD3 cells; assay: Inhibition of PGE2-stimulated in vitro cyst formation in m-IMCD3 cells; assay type: cell-based, mouse; settings: Mus musculus, mIMCD3, 144 h, 3 μM; mean cyst area, 100% for (DMSO + PGE2) and 0% for DMSO control; 6 days of culture; read-out: % Cyst area after incubation with 3 μM test compound
In short: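 m-IMCD3 cells embedded in collagen I/Matrigel 3D culture; 18–24 h after plating, compound (0.1% DMSO final) plus PGE2 (100 nM final) added, replenished after 2 or 3 days. After 6 days, z-stack imaging gave mean cyst area, normalized to DMSO+PGE2 (100%) and DMSO (0%).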

Point of comparison: `COc1nc(F)ccc1C(=O)N1CCc2nc(N3C4CCC3CNC4)sc2C1` [Example 240, (2-(3,8-diazabicyclo[3.2.1]octan-8-yl)-6,7-dihydrothiazolo[5,4-c]pyridin-5(4H)-yl)(6-fluoro-2-methoxypyridin-3-yl)methanone], activity at 3 µM -3%. Against it:
- COc1cccc(C#N)c1OCC(=O)N1CCc2nc(N3C4CCC3CNC4)sc2C1 [Example 168, 2-(2-(2-(3,8-diazabicyclo[3.2.1]octan-8-yl)-6,7-dihydrothiazolo[5,4-c]pyridin-5(4H)-yl)-2-oxoethoxy)-3-methoxybenzonitrile] — the same, -3%
- O=C(c1ccc(CC(F)(F)F)cc1)N1CCc2nc(N3C4CCC3CNC4)sc2C1 [Example 232, (2-(3,8-diazabicyclo[3.2.1]octan-8-yl)-6,7-dihydrothiazolo[5,4-c]pyridin-5(4H)-yl)(4-(2,2,2-trifluoroethyl)phenyl)methanone] — higher, 5%
- O=C(C1COc2ccccc2C1)N1CCc2nc(N3C4CCC3CNC4)sc2C1 (stereo not drawn) [Example 182, (2-(3,8-diazabicyclo[3.2.1]octan-8-yl)-6,7-dihydrothiazolo[5,4-c]pyridin-5(4H)-yl)(chroman-3-yl)methanone] — higher, 1%
- O=C(c1cccc(C(F)F)c1)N1CCc2nc(N3C4CCC3CNC4)sc2C1 [Example 199, (2-(3,8-diazabicyclo[3.2.1]octan-8-yl)-6,7-dihydrothiazolo[5,4-c]pyridin-5(4H)-yl)(3-(difluoromethyl)phenyl)methanone] — higher, 3%
- CCC(C)(C)CC(=O)N1CCc2nc(N3C4CCC3CNC4)sc2C1 [Example 174, 1-(2-(3,8-diazabicyclo[3.2.1]octan-8-yl)-6,7-dihydrothiazolo[5,4-c]pyridin-5(4H)-yl)-3,3-dimethylpentan-1-one] — higher, 3%
- Cc1cc(F)ncc1C(=O)N1CCc2nc(N3C4CCC3CNC4)sc2C1 [Example 242, (2-(3,8-diazabicyclo[3.2.1]octan-8-yl)-6,7-dihydrothiazolo[5,4-c]pyridin-5(4H)-yl)(6-fluoro-4-methylpyridin-3-yl)methanone] — higher, 29%
- O=C(CC1CCCC1)N1CCc2nc(N3CCNC[C@@H]3CO)sc2C1 [Example 275, (R)-2-cyclopentyl-1-(2-(2-(hydroxymethyl)piperazin-1-yl)-6,7-dihydrothiazolo[5,4-c]pyridin-5(4H)-yl)ethan-1-one] — higher, 19%
- COc1cc(F)ccc1C(=O)N1CCc2nc(N3C4CCC3CNC4)sc2C1 [Example 222, (2-(3,8-diazabicyclo[3.2.1]octan-8-yl)-6,7-dihydrothiazolo[5,4-c]pyridin-5(4H)-yl)(4-fluoro-2-methoxyphenyl)methanone] — higher, 4%
- O=C(C1COc2ccccc2O1)N1CCc2nc(N3C4CCC3CNC4)sc2C1 (stereo not drawn) [Example 180, (2-(3,8-diazabicyclo[3.2.1]octan-8-yl)-6,7-dihydrothiazolo[5,4-c]pyridin-5(4H)-yl)(2,3-dihydrobenzo[b][1,4]dioxin-2-yl)methanone] — higher, 2%
- O=C(c1cccc2c1CCO2)N1CCc2nc(N3C4CCC3CNC4)sc2C1 [Example 236, (2-(3,8-diazabicyclo[3.2.1]octan-8-yl)-6,7-dihydrothiazolo[5,4-c]pyridin-5(4H)-yl)(2,3-dihydrobenzofuran-4-yl)methanone] — higher, 27%
- Cc1cncc(-c2nc3c(s2)CN(C(=O)CC2CCCC2)CC3)c1 [Example 306, 2-cyclopentyl-1-(2-(5-methylpyridin-3-yl)-6,7-dihydrothiazolo[5,4-c]pyridin-5(4H)-yl)ethan-1-one] — the same, -3%
- O=C(c1cccc(F)c1)N1CCc2nc(N3C4CCC3CNC4)sc2C1 [Example 235, (2-(3,8-diazabicyclo[3.2.1]octan-8-yl)-6,7-dihydrothiazolo[5,4-c]pyridin-5(4H)-yl)(3-fluorophenyl)methanone] — the same, -3%
- Cn1c(C(=O)N2CCc3nc(N4C5CCC4CNC5)sc3C2)cc2ccccc21 [Example 189, (2-(3,8-diazabicyclo[3.2.1]octan-8-yl)-6,7-dihydrothiazolo[5,4-c]pyridin-5(4H)-yl)(1-methyl-1H-indol-2-yl)methanone] — higher, -1%
- O=C(CC12CCC(CC1)C2)N1CCc2nc(N3C4CCC3CNC4)sc2C1 [Example 160, 1-(2-(3,8-diazabicyclo[3.2.1]octan-8-yl)-6,7-dihydrothiazolo[5,4-c]pyridin-5(4H)-yl)-2-(bicyclo[2.2.1]heptan-1-yl)ethan-1-one] — higher, -2%
- O=C(c1ccc(F)cn1)N1CCc2nc(N3C4CCC3CNC4)sc2C1 [Example 202, (2-(3,8-diazabicyclo[3.2.1]octan-8-yl)-6,7-dihydrothiazolo[5,4-c]pyridin-5(4H)-yl)(5-fluoropyridin-2-yl)methanone] — lower, -4%
- O=C(c1ccc(C(F)F)cc1)N1CCc2nc(N3C4CCC3CNC4)sc2C1 [Example 229, (2-(3,8-diazabicyclo[3.2.1]octan-8-yl)-6,7-dihydrothiazolo[5,4-c]pyridin-5(4H)-yl)(4-(difluoromethyl)phenyl)methanone] — higher, -1%
- O=C(c1cccc2c1OC(F)(F)O2)N1CCc2nc(N3C4CCC3CNC4)sc2C1 [Example 233, (2-(3,8-diazabicyclo[3.2.1]octan-8-yl)-6,7-dihydrothiazolo[5,4-c]pyridin-5(4H)-yl)(2,2-difluorobenzo[d][1,3]dioxol-4-yl)methanone] — higher, -2%
- O=C(c1ccccn1)N1CCc2nc(N3C4CCC3CNC4)sc2C1 [Example 201, (2-(3,8-diazabicyclo[3.2.1]octan-8-yl)-6,7-dihydrothiazolo[5,4-c]pyridin-5(4H)-yl)(pyridin-2-yl)methanone] — higher, 17%
- O=C(c1ccc(F)nc1)N1CCc2nc(N3C4CCC3CNC4)sc2C1 [Example 200, (2-(3,8-diazabicyclo[3.2.1]octan-8-yl)-6,7-dihydrothiazolo[5,4-c]pyridin-5(4H)-yl)(6-fluoropyridin-3-yl)methanone] — higher, 4%

same assay, conditions: Mus musculus, mIMCD3, 144 h, 10 μM; mean cyst area, 100% for (DMSO + PGE2) and 0% for DMSO control; 6 days of culture; read-out: % Cyst area after incubation with 10 μM test compound

Point of comparison: `Cc1cc(F)ccc1OCC(=O)N1CCc2nc(N3C4CCC3CNC4)sc2C1` [Example 145, 1-(2-(3,8-diazabicyclo[3.2.1]octan-8-yl)-6,7-dihydrothiazolo[5,4-c]pyridin-5(4H)-yl)-2-(4-fluoro-2-methylphenoxy)ethan-1-one], activity at 10 µM 17%. Against it:
- O=C(C(O)c1ccc(F)cc1)N1CCc2nc(N3C4CCC3CNC4)sc2C1 (stereo not drawn) [Example 132, 1-(2-(3,8-diazabicyclo[3.2.1]octan-8-yl)-6,7-dihydrothiazolo[5,4-c]pyridin-5(4H)-yl)-2-(4-fluorophenyl)-2-hydroxyethan-1-one] — lower, -6%
- O=C(Cc1ccc(F)cc1F)N1CCc2nc(N3C4CCC3CNC4)sc2C1 [Example 144, 1-(2-(3,8-diazabicyclo[3.2.1]octan-8-yl)-6,7-dihydrothiazolo[5,4-c]pyridin-5(4H)-yl)-2-(2,4-difluorophenyl)ethan-1-one] — lower, 13%
- CC(C)C(O)C(=O)N1CCc2nc(N3C4CCC3CNC4)sc2C1 (stereo not drawn) [Example 28, 1-(2-(3,8-diazabicyclo[3.2.1]octan-8-yl)-6,7-dihydrothiazolo[5,4-c]pyridin-5(4H)-yl)-2-hydroxy-3-methylbutan-1-one] — lower, 3%
- CN(C(=O)N1CCc2nc(N3C4CCC3CNC4)sc2C1)C1CCCC1 [Example 62, 2-(3,8-diazabicyclo[3.2.1]octan-8-yl)-N-cyclopentyl-N-methyl-6,7-dihydrothiazolo[5,4-c]pyridine-5(4H)-carboxamide] — lower, 1%
- CN1CCN(c2nc3c(s2)CN(C(=O)CC2CCC(F)(F)CC2)CC3(C)C)CC1 [Example 104, 2-(4,4-difluorocyclohexyl)-1-(7,7-dimethyl-2-(4-methylpiperazin-1-yl)-6,7-dihydrothiazolo[5,4-c]pyridin-5(4H)-yl)ethan-1-one] — lower, 0%
- O=C(COc1ccc(F)cc1F)N1CCc2nc(N3C4CCC3CNC4)sc2C1 [Example 148, 1-(2-(3,8-diazabicyclo[3.2.1]octan-8-yl)-6,7-dihydrothiazolo[5,4-c]pyridin-5(4H)-yl)-2-(2,4-difluorophenoxy)ethan-1-one] — lower, 3%
- O=C(CC1CCCC1)N1CCc2nc(N3CCNCC3)sc2C1 [Example 109, 2-cyclopentyl-1-(2-(piperazin-1-yl)-6,7-dihydrothiazolo[5,4-c]pyridin-5(4H)-yl)ethan-1-one] — lower, 6%
- CN1CC2CCC(C1)N2c1nc2c(s1)CN(C(=O)CC1CCCC1)CC2 [Example 75, 2-cyclopentyl-1-(2-(3-methyl-3,8-diazabicyclo[3.2.1]octan-8-yl)-6,7-dihydrothiazolo[5,4-c]pyridin-5(4H)-yl)ethan-1-one] — lower, -4%
- O=C(COc1ccc(F)cc1)N1CCc2nc(N3C4CCC3CNC4)sc2C1 [Example 21, 1-(2-(3,8-diazabicyclo[3.2.1]octan-8-yl)-6,7-dihydrothiazolo[5,4-c]pyridin-5(4H)-yl)-2-(4-fluorophenoxy)ethan-1-one] — lower, -1%
- O=C(COC1CCCC1)N1CCc2nc(N3C4CCC3CNC4)sc2C1 [Example 149, 1-(2-(3,8-diazabicyclo[3.2.1]octan-8-yl)-6,7-dihydrothiazolo[5,4-c]pyridin-5(4H)-yl)-2-(cyclopentyloxy)ethan-1-one] — lower, -2%
- COc1ccccc1CC(=O)N1CCc2nc(N3C4CCC3CNC4)sc2C1 [Example 139, 1-(2-(3,8-diazabicyclo[3.2.1]octan-8-yl)-6,7-dihydrothiazolo[5,4-c]pyridin-5(4H)-yl)-2-(2-methoxyphenyl)ethan-1-one] — lower, -1%
- CC(C)NC(=O)N1CCc2nc(N3C4CCC3CNC4)sc2C1 [Example 51, 2-(3,8-diazabicyclo[3.2.1]octan-8-yl)-N-isopropyl-6,7-dihydrothiazolo[5,4-c]pyridine-5(4H)-carboxamide] — lower, 9%
